# Assay results from article PMC5218480 (PLoS ONE, 2017).
# Test system: MV-4-11 cells
# Assay: Gene expression microarray analysis (Affymetrix PrimeView) and GSEA
# Assay type: cell-based, human
# Set-up: RFU PODN (11730768_x_at) / Fold change /veh PODN (11730768_x_at) / RFU LINC00158 (11744669_a_at) / Fold change /veh LINC00158 (11744669_a_at) / RFU DUSP10 (11751237_a_at) / Fold change /veh DUSP10 (11751237_a_at) / RFU ID3 (11757404_x_at) / Fold change /veh ID3 (11757404_x_at) / RFU PLEKHG5 (11737974_s_at) / Fold change /veh PLEKHG5 (11737974_s_at) / RFU LRRC4B (11730491_at) / Fold change /veh LRRC4B (11730491_at) / RFU GIMAP4 (11747438_a_at) / Fold change /veh GIMAP4 (11747438_a_at) / RFU KRT8 (11758183_x_at) / Fold change /veh KRT8 (11758183_x_at) / RFU CNN1 (11734310_a_at) / Fold change /veh CNN1 (11734310_a_at) / RFU VPS37D (11726825_at) / Fold change /veh VPS37D (11726825_at) / RFU C10orf10 (11716522_x_at) / Fold change /veh C10orf10 (11716522_x_at) / RFU KIR2DL2 /// KIR2DL4 /// KIR2DL5A /// KIR2DL5B /// KIR2DS1 /// KIR2DS2 /// KIR2DS3 /// KIR2DS4 /// KIR3DL3 /// KIR3DL3 /// KIR3DS1 (11738374_at) / Fold change /veh KIR2DL2 /// KIR2DL4 /// KIR2DL5A /// KIR2DL5B /// KIR2DS1 /// KIR2DS2 /// KIR2DS3 /// KIR2DS4 /// KIR3DL3 /// KIR3DL3 /// KIR3DS1 (11738374_at) / RFU C1QL1 (11718748_at) / Fold change /veh C1QL1 (11718748_at) / RFU TMPRSS4 (11747572_a_at) / Fold change /veh TMPRSS4 (11747572_a_at) / RFU HAMP (11756126_x_at) / Fold change /veh HAMP (11756126_x_at) / RFU RNFT2 (11725882_a_at) / Fold change /veh RNFT2 (11725882_a_at) / RFU NR4A2 (11747474_a_at) / Fold change /veh NR4A2 (11747474_a_at) / RFU ABCC12 (11746883_a_at) / Fold change /veh ABCC12 (11746883_a_at) / RFU TMEM136 (11760407_x_at) / Fold change /veh TMEM136 (11760407_x_at) / RFU CLDN22 /// WWC2 (11732394_at) / Fold change /veh CLDN22 /// WWC2 (11732394_at) / RFU HLA-DPB1 (11760878_x_at) / Fold change /veh HLA-DPB1 (11760878_x_at) / RFU SPINT1 (11716480_a_at) / Fold change /veh SPINT1 (11716480_a_at) / RFU GAP43 (11754022_s_at) / Fold change /veh GAP43 (11754022_s_at) / RFU A4GNT (11735810_at) / Fold change /veh A4GNT (11735810_at) / RFU PRB3 (11715151_x_at) / Fold change /veh PRB3 (11715151_x_at) / RFU TUBB4B (11761932_at) / Fold change /veh TUBB4B (11761932_at) / RFU CAPN14 (11732068_a_at) / Fold change /veh CAPN14 (11732068_a_at) / RFU TMCC2 (11721928_a_at) / Fold change /veh TMCC2 (11721928_a_at) / RFU IRGQ (11745062_a_at) / Fold change /veh IRGQ (11745062_a_at) / RFU FAM174B (11720279_a_at) / Fold change /veh FAM174B (11720279_a_at) / RFU TMPRSS4 (11748680_a_at) / Fold change /veh TMPRSS4 (11748680_a_at) / RFU FAM212B (11763350_a_at) / Fold change /veh FAM212B (11763350_a_at) / RFU PLEKHG5 (11743358_a_at) / Fold change /veh PLEKHG5 (11743358_a_at) / RFU ZSCAN30 (11745921_a_at) / Fold change /veh ZSCAN30 (11745921_a_at) / RFU CMKLR1 (11741424_a_at) / Fold change /veh CMKLR1 (11741424_a_at) / RFU LOC101060620 /// MAPK8IP1 (11723275_at) / Fold change /veh LOC101060620 /// MAPK8IP1 (11723275_at) / RFU SPTSSB (11747773_x_at) / Fold change /veh SPTSSB (11747773_x_at) / RFU PRSS12 (11739890_at) / Fold change /veh PRSS12 (11739890_at) / RFU BIN1 (11741810_x_at) / Fold change /veh BIN1 (11741810_x_at) / RFU WNT11 (11732464_a_at) / Fold change /veh WNT11 (11732464_a_at) / RFU C10orf10 (11716521_a_at) / Fold change /veh C10orf10 (11716521_a_at) / RFU C5orf56 (11738089_at) / Fold change /veh C5orf56 (11738089_at) / RFU CYB561 (11721691_x_at) / Fold change /veh CYB561 (11721691_x_at) / RFU ANKRD19P (11752326_a_at) / Fold change /veh ANKRD19P (11752326_a_at) / RFU OR2T12 /// OR2T33 /// OR2T8 (11738714_s_at) / Fold change /veh OR2T12 /// OR2T33 /// OR2T8 (11738714_s_at) / RFU VCAN (11748164_a_at) / Fold change /veh VCAN (11748164_a_at) / RFU JSRP1 (11732532_at) / Fold change /veh JSRP1 (11732532_at) / RFU KRTAP10-11 (11738290_x_at) / Fold change /veh KRTAP10-11 (11738290_x_at) / RFU MYO3A (11730013_a_at) / Fold change /veh MYO3A (11730013_a_at) / RFU EBF3 (11725865_a_at) / Fold change /veh EBF3 (11725865_a_at) / RFU CAMK2N1 (11719241_x_at) / Fold change /veh CAMK2N1 (11719241_x_at) / RFU C5orf56 (11738088_a_at) / Fold change /veh C5orf56 (11738088_a_at) / RFU OLFML3 (11715873_a_at) / Fold change /veh OLFML3 (11715873_a_at) / RFU LOC100653217 /// NTM (11731650_a_at) / Fold change /veh LOC100653217 /// NTM (11731650_a_at) / RFU MAPK11 (11762145_a_at) / Fold change /veh MAPK11 (11762145_a_at) / RFU FIZ1 (11724087_x_at) / Fold change /veh FIZ1 (11724087_x_at) / RFU OASL (11726364_x_at) / Fold change /veh OASL (11726364_x_at) / RFU SOX15 (11748057_x_at) / Fold change /veh SOX15 (11748057_x_at) / RFU CD79A (11719716_a_at) / Fold change /veh CD79A (11719716_a_at) / RFU HIST1H1D (11736915_at) / Fold change /veh HIST1H1D (11736915_at) / RFU CASKIN2 (11723855_a_at) / Fold change /veh CASKIN2 (11723855_a_at) / RFU LOC730098 (11760151_x_at) / Fold change /veh LOC730098 (11760151_x_at) / RFU OR4N2 (11742367_at) / Fold change /veh OR4N2 (11742367_at) / RFU PRRT2 (11749266_a_at) / Fold change /veh PRRT2 (11749266_a_at) / RFU SNX32 (11753110_a_at) / Fold change /veh SNX32 (11753110_a_at) / RFU CDHR5 (11726645_a_at) / Fold change /veh CDHR5 (11726645_a_at) / RFU RCAN1 (11760418_a_at) / Fold change /veh RCAN1 (11760418_a_at) / RFU FAM167A (11723789_a_at) / Fold change /veh FAM167A (11723789_a_at) / RFU FAM26E (11764081_at) / Fold change /veh FAM26E (11764081_at) / RFU ISYNA1 (11749810_s_at) / Fold change /veh ISYNA1 (11749810_s_at) / RFU ACY1 (11761880_at) / Fold change /veh ACY1 (11761880_at) / RFU 11764098_at / Fold change /veh 11764098_at / RFU SAMD14 (11745864_x_at) / Fold change /veh SAMD14 (11745864_x_at) / RFU NPB (11741838_a_at) / Fold change /veh NPB (11741838_a_at) / RFU TMPRSS6 (11731388_a_at) / Fold change /veh TMPRSS6 (11731388_a_at) / RFU KRTAP10-2 (11738614_at) / Fold change /veh KRTAP10-2 (11738614_at) / RFU ARHGAP8 /// PRR5-ARHGAP8 (11727945_x_at) / Fold change /veh ARHGAP8 /// PRR5-ARHGAP8 (11727945_x_at) / RFU KRTAP5-7 /// NADSYN1 (11734609_at) / Fold change /veh KRTAP5-7 /// NADSYN1 (11734609_at) / RFU RASL12 (11751679_a_at) / Fold change /veh RASL12 (11751679_a_at) / RFU CDKN2B (11736163_a_at) / Fold change /veh CDKN2B (11736163_a_at) / RFU PRF1 (11729649_at) / Fold change /veh PRF1 (11729649_at) / RFU, ZNF638 /// ZNF638-IT1 / Fold change vs veh, ZNF638 /// ZNF638-IT1 / RFU, PANK3 / Fold change vs veh, PANK3 / RFU, SH3YL1 / Fold change vs veh, SH3YL1 / RFU, ZEB2 / Fold change vs veh, ZEB2 / RFU, NRIP1 / Fold change vs veh, NRIP1 / RFU, PTTG1IP / Fold change vs veh, PTTG1IP / RFU, CAPN2 / Fold change vs veh, CAPN2 / RFU, MED14 / Fold change vs veh, MED14 / RFU, SNORA58 / Fold change vs veh, SNORA58 / RFU, C1orf63 / Fold change vs veh, C1orf63 / RFU, LRRFIP1 / Fold change vs veh, LRRFIP1 / RFU, NDUFAF7 / Fold change vs veh, NDUFAF7 / RFU, SLC12A2 / Fold change vs veh, SLC12A2 / RFU, IBTK / Fold change vs veh, IBTK / RFU, ESF1 / Fold change vs veh, ESF1 / Fold change vs veh, TMEM50B / RFU, TAOK1 / Fold change vs veh, TAOK1 / RFU, ACBD3 / Fold change vs veh, ACBD3 / RFU, TMA16 / Fold change vs veh, TMA16 / RFU, RWDD3 / Fold change vs veh, RWDD3 / RFU, BCAT1 / Fold change vs veh, BCAT1 / RFU, EDEM3 / Fold change vs veh, EDEM3 / RFU, TMEM33 / Fold change vs veh, TMEM33 / RFU, WDR75 / Fold change vs veh, WDR75 / RFU, AHCTF1 / Fold change vs veh, AHCTF1 / RFU, TFRC / Fold change vs veh, TFRC / RFU, ZDHHC17 / Fold change vs veh, ZDHHC17 / RFU, NOM1 / Fold change vs veh, NOM1 / RFU, ARL8B / Fold change vs veh, ARL8B / RFU, ZBTB11 / Fold change vs veh, ZBTB11 / RFU, TAMM41 / Fold change vs veh, TAMM41 / RFU, KIAA1704 /// LOC100996395 / Fold change vs veh, KIAA1704 /// LOC100996395 / RFU, ING1 / Fold change vs veh, ING1 / RFU, TRMT61B / Fold change vs veh, TRMT61B / RFU, FUBP3 / Fold change vs veh, FUBP3 / RFU, TP53 / Fold change vs veh, TP53 / RFU, TNKS2 / Fold change vs veh, TNKS2 / RFU, ZFP14 / Fold change vs veh, ZFP14 / RFU, ACTR2 / Fold change vs veh, ACTR2 / RFU, PPP3R1 / Fold change vs veh, PPP3R1 / RFU, PIK3R1 / Fold change vs veh, PIK3R1 / RFU, HNRNPA1 / Fold change vs veh, HNRNPA1 / RFU, RNF170 / Fold change vs veh, RNF170 / RFU, ZNF28 / Fold change vs veh, ZNF28 / RFU, RNGTT / Fold change vs veh, RNGTT / RFU, OGT / Fold change vs veh, OGT / RFU, BRD1 / Fold change vs veh, BRD1 / RFU, MARS / Fold change vs veh, MARS / RFU, ZNF655 / Fold change vs veh, ZNF655 / RFU, FAHD1 / Fold change vs veh, FAHD1 / RFU, BDP1 / Fold change vs veh, BDP1 / RFU, LRRCC1 / Fold change vs veh, LRRCC1 / RFU, ARID1A / Fold change vs veh, ARID1A / RFU, ZNF146 / Fold change vs veh, ZNF146 / RFU, ZNF330 / Fold change vs veh, ZNF330 / RFU, GPN3 / Fold change vs veh, GPN3 / RFU, C9orf123 / Fold change vs veh, C9orf123 / RFU, N4BP2L2 / Fold change vs veh, N4BP2L2 / RFU, ARFIP1 / Fold change vs veh, ARFIP1 / RFU, FAM179B / Fold change vs veh, FAM179B / RFU, BCL10 / Fold change vs veh, BCL10 / RFU, UHRF1BP1L / Fold change vs veh, UHRF1BP1L / RFU, BET1 / Fold change vs veh, BET1 / RFU, CNOT2 / Fold change vs veh, CNOT2 / RFU, ZNF268 / Fold change vs veh, ZNF268 / Fold change vs veh, ZNF507 / RFU, DGCR2 / Fold change vs veh, DGCR2 / RFU, WDSUB1 / Fold change vs veh, WDSUB1 / Fold change vs veh, HSP90B1 /// MIR3652 / RFU, ADSS / Fold change vs veh, ADSS / RFU, GK / Fold change vs veh, GK / RFU, ZNF148 / Fold change vs veh, ZNF148 / RFU, TAF9 / Fold change vs veh, TAF9 / RFU, SLC1A5 / Fold change vs veh, SLC1A5 / RFU, SLMO2 / Fold change vs veh, SLMO2 / RFU, ABCC4 / Fold change vs veh, ABCC4 / RFU, LOC101060439 /// RAP1B / Fold change vs veh, LOC101060439 /// RAP1B / RFU, RFX7 / Fold change vs veh, RFX7 / RFU, GTPBP10 / Fold change vs veh, GTPBP10 / RFU, CNEP1R1 / Fold change vs veh, CNEP1R1 / RFU, BIVM-ERCC5 /// ERCC5 / Fold change vs veh, BIVM-ERCC5 /// ERCC5 / RFU, ILF3 / Fold change vs veh, ILF3 / RFU 11762660_at / Fold change /veh 11762660_at / RFU VCAN (11757783_s_at) / Fold change /veh VCAN (11757783_s_at) / RFU DDX43 (11728927_at) / Fold change /veh DDX43 (11728927_at) / RFU KRT8 (11758188_x_at) / Fold change /veh KRT8 (11758188_x_at) / RFU NKD1 (11759106_at) / Fold change /veh NKD1 (11759106_at) / RFU SRD5A1 (11742802_a_at) / Fold change /veh SRD5A1 (11742802_a_at) / RFU TPSAB1 /// TPSB2 (11721975_s_at) / Fold change /veh TPSAB1 /// TPSB2 (11721975_s_at) / RFU GSTM3 (11746129_a_at) / Fold change /veh GSTM3 (11746129_a_at) / RFU IL23R (11737362_x_at) / Fold change /veh IL23R (11737362_x_at) / RFU TMEM51 (11727254_a_at) / Fold change /veh TMEM51 (11727254_a_at) / RFU PIWIL2 (11732686_x_at) / Fold change /veh PIWIL2 (11732686_x_at) / RFU ORM1 (11744905_x_at) / Fold change /veh ORM1 (11744905_x_at) / RFU CCDC152 (11743942_at) / Fold change /veh CCDC152 (11743942_at) / RFU ECM1 (11717891_a_at) / Fold change /veh ECM1 (11717891_a_at) / RFU IL23R (11748794_a_at) / Fold change /veh IL23R (11748794_a_at) / RFU TNFAIP8L3 (11732012_x_at) / Fold change /veh TNFAIP8L3 (11732012_x_at) / RFU MBOAT4 (11741988_at) / Fold change /veh MBOAT4 (11741988_at) / RFU 11764193_at / Fold change /veh 11764193_at / RFU TMEM53 (11763286_at) / Fold change /veh TMEM53 (11763286_at) / RFU MAGEB2 (11727129_at) / Fold change /veh MAGEB2 (11727129_at) / RFU TMEM200A (11744735_a_at) / Fold change /veh TMEM200A (11744735_a_at) / RFU CCDC152 (11751479_a_at) / Fold change /veh CCDC152 (11751479_a_at) / RFU FAM211A (11726209_a_at) / Fold change /veh FAM211A (11726209_a_at) / RFU RGS16 (11746705_a_at) / Fold change /veh RGS16 (11746705_a_at) / RFU VCAN (11755009_s_at) / Fold change /veh VCAN (11755009_s_at) / RFU RHOB (11743442_s_at) / Fold change /veh RHOB (11743442_s_at) / RFU RGS16 (11720943_a_at) / Fold change /veh RGS16 (11720943_a_at) / RFU RGS16 (11720944_at) / Fold change /veh RGS16 (11720944_at) / RFU, VPS4B / Fold change vs veh, VPS4B / RFU, CREB1 / Fold change vs veh, CREB1 / RFU, DNAJC13 / Fold change vs veh, DNAJC13 / RFU, GNAQ / Fold change vs veh, GNAQ / RFU, CDK5R1 / Fold change vs veh, CDK5R1 / RFU, ZRANB3 / Fold change vs veh, ZRANB3 / RFU, CUL4A / Fold change vs veh, CUL4A / RFU, CCNY / Fold change vs veh, CCNY / RFU, UFL1 / Fold change vs veh, UFL1 / RFU, COG3 / Fold change vs veh, COG3 / RFU, DIAPH2 / Fold change vs veh, DIAPH2 / RFU, SKA2 / Fold change vs veh, SKA2 / RFU, AFF3 / Fold change vs veh, AFF3 / RFU, LMF1 / Fold change vs veh, LMF1 / RFU, IPO11 / Fold change vs veh, IPO11 / RFU, DFFB / Fold change vs veh, DFFB / RFU, FOXP1 / Fold change vs veh, FOXP1 / RFU, CARD8 / Fold change vs veh, CARD8 / RFU, STRN3 / Fold change vs veh, STRN3 / RFU, ADK / Fold change vs veh, ADK / RFU, RASSF2 / Fold change vs veh, RASSF2 / RFU, WIPF1 / Fold change vs veh, WIPF1 / RFU, LARP1B / Fold change vs veh, LARP1B / RFU, RASA1 / Fold change vs veh, RASA1 / RFU, RB1 / Fold change vs veh, RB1 / RFU, PPFIA1 / Fold change vs veh, PPFIA1 / RFU, MAT2A / Fold change vs veh, MAT2A / RFU, CCT5 / Fold change vs veh, CCT5 / RFU, WDR92 / Fold change vs veh, WDR92 / RFU, CUX1 / Fold change vs veh, CUX1 / RFU, TTC7A / Fold change vs veh, TTC7A / RFU, TMEM135 / Fold change vs veh, TMEM135 / RFU, DEPTOR / Fold change vs veh, DEPTOR / RFU, CPM / Fold change vs veh, CPM / RFU, DNAJB6 / Fold change vs veh, DNAJB6 / RFU, CACNA2D3 / Fold change vs veh, CACNA2D3 / RFU, DTX4 / Fold change vs veh, DTX4 / RFU, TFCP2 / Fold change vs veh, TFCP2 / RFU, GMCL1 /// GMCL1P1 / Fold change vs veh, GMCL1 /// GMCL1P1 / RFU, AEBP2 / Fold change vs veh, AEBP2 / RFU, SNHG1 /// SNORD22 /// SNORD25 /// SNORD26 /// SNORD27 /// SNORD28 /// SNORD29 /// SNORD31 / Fold change vs veh, SNHG1 /// SNORD22 /// SNORD25 /// SNORD26 /// SNORD27 /// SNORD28 /// SNORD29 /// SNORD31 / Fold change (Aza/veh), C12orf56 (ProbeSet 11735607_a_at) / Fold change (ACY-1035/veh), C12orf56 (ProbeSet 11735607_a_at) / Fold change (Aza/veh), FGFR1OP (ProbeSet 11751329_s_at) / Fold change (ACY-1035/veh), FGFR1OP (ProbeSet 11751329_s_at) / Fold change (Aza/veh), VPS36 (ProbeSet 11739960_a_at) / Fold change (ACY-1035/veh), VPS36 (ProbeSet 11739960_a_at) / RFU SYPL1 (11715823_x_at) / Fold change /veh SYPL1 (11715823_x_at) / RFU IGFBP7 (11715501_s_at) / Fold change /veh IGFBP7 (11715501_s_at) / RFU REEP3 (11722064_at) / Fold change /veh REEP3 (11722064_at) / RFU IGLL1 (11728026_x_at) / Fold change /veh IGLL1 (11728026_x_at): dose or concentration left out as unconfirmed
# Settings: MV-4-11 cells, 48 hours
smiles,measurement,value
Nc1ncn([C@@H]2O[C@H](CO)[C@@H](O)[C@H]2O)c(=O)n1 [azacitidine],RFU LRRC4B (11730491_at),28.29 RFU
